Source: PubChem BioAssay (NCI)
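Interpolation was linear, between the two tested concentrations surrounding the appropriate level; five concentrations were tested over 48 hours in 96-well plates. The concentration for 50% growth inhibition is given as GI50. TGI: concentration producing complete growth inhibition.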

Columns and labels:
Experiment in all cases: NCI tumour cell line growth inhibition, 48 h
[1] = tested on: HOP-62 NSCLC
[2] = tested on: HOP-92 NSCLC
[3] = tested on: HCC-2998 colon
[4] = tested on: A549 NSCLC
[5] = tested on: MOLT-4 leukemia
[6] = tested on: HL-60(TB) leukemia
[7] = tested on: SN12C renal
[8] = tested on: CAKI-1 renal
[9] = tested on: HCT-116 colon
[10] = tested on: LOX IMVI melanoma
[11] = tested on: NCI-H226 lung
[12] = tested on: OVCAR-8 ovarian
[13] = tested on: MCF7 breast
[14] = tested on: MDA-MB-231 breast
[15] = tested on: PC-3 prostate
[16] = tested on: SK-MEL-2 melanoma
[17] = tested on: HT29 colon
[18] = tested on: T-47D breast
[19] = tested on: NCI-H460 lung
[20] = tested on: DU-145 prostate
[21] = tested on: SR leukemia
[22] = tested on: HCT-15 colon
[23] = tested on: COLO 205 colon
[24] = tested on: SF-268 CNS
[25] = tested on: ACHN renal
[26] = tested on: SW-620 colon
[27] = tested on: SF-539 CNS
[28] = tested on: OVCAR-3 ovarian
[29] = tested on: OVCAR-4 ovarian
[30] = tested on: SK-MEL-28 melanoma
[31] = tested on: SF-295 CNS
[32] = tested on: OVCAR-5 ovarian
[33] = tested on: M14 melanoma
[34] = tested on: NCI-H23 lung
[35] = tested on: A498 renal
[36] = tested on: SK-OV-3 ovarian
[37] = tested on: NCI-H522 lung
[38] = tested on: SNB-75 CNS
[39] = tested on: MDA-MB-435
[40] = tested on: SNB-19 CNS
[41] = tested on: TK-10 renal
[42] = tested on: CCRF-CEM leukemia
[43] = tested on: UACC-257 melanoma
[44] = tested on: K-562 leukemia
[45] = tested on: U251 CNS
[46] = tested on: KM12 colon
[47] = tested on: MALME-3M melanoma
[48] = tested on: RPMI-8226 leukemia
[49] = tested on: BT-549 breast

With `COc1ccc(Nc2ccc([N+](=O)[O-])cc2[N+](=O)[O-])cc1CN(CCCl)CCCl` the GI50 [1] was 2.97 µM, the TGI [1] was 20.9 µM and the GI50 [2] was 1.99 µM. It also gave a TGI [2] of 5.47 µM, a GI50 [3] of 2.15 µM and a TGI [3] of 6.9 µM. The GI50 [4] was 4.43 µM, the TGI [4] was 30.7 µM and the GI50 [5] was 0.39 µM. For the same compound, the TGI [5] was 9.94 µM, the GI50 [6] was 1.88 µM and the TGI [6] was 7.26 µM. For the same compound, the GI50 [7] was 2.6 µM, the TGI [7] was greater than 100 µM and the GI50 [8] was 1.39 µM. For the same compound, the TGI [8] was 4.33 µM, the GI50 [9] was 1.16 µM and the TGI [9] was 3.75 µM. It also gave a GI50 [10] of 1.37 µM, a TGI [10] of 3.51 µM and a GI50 [11] of 3.49 µM. It also gave a TGI [11] of 21.4 µM, a GI50 [12] of 3.02 µM and a TGI [12] greater than 100 µM. The GI50 [13] was 1.49 µM, the TGI [13] was 13.3 µM and the GI50 [14] was 2.69 µM. The TGI [14] was 9.44 µM, the GI50 [15] was 2.04 µM and the TGI [15] was 9.59 µM. For the same compound, the GI50 [16] was 2.28 µM, the TGI [16] was 5.66 µM and the GI50 [17] was 2.44 µM. The TGI [17] was 9.59 µM, the GI50 [18] was 2.6 µM and the TGI [18] was 26.4 µM. It also gave a GI50 [19] of 1.82 µM, a TGI [19] of 6.16 µM and a GI50 [20] of 3.1 µM. The TGI [20] was 10.5 µM, the GI50 [21] was 0.378 µM and the TGI [21] was 79.5 µM. The GI50 [22] was 2.48 µM, the TGI [22] was 9.93 µM and the GI50 [23] was 1.8 µM. It also gave a TGI [23] of 7.84 µM, a GI50 [24] of 2.44 µM and a TGI [24] of 16.8 µM. The GI50 [25] was 1.63 µM, the TGI [25] was 5.94 µM and the GI50 [26] was 2.11 µM. The TGI [26] was 13.4 µM, the GI50 [27] was 1.85 µM and the TGI [27] was 4.85 µM. For the same compound, the GI50 [28] was 2.36 µM, the TGI [28] was 7.85 µM and the GI50 [29] was 2.7 µM. The TGI [29] was greater than 100 µM, the GI50 [30] was 3.24 µM and the TGI [30] was 18.4 µM. For the same compound, the GI50 [31] was 2.79 µM, the TGI [31] was 19.7 µM and the GI50 [32] was 2.51 µM. For the same compound, the TGI [32] was 8.94 µM, the GI50 [33] was 2.72 µM and the TGI [33] was 19.6 µM. For the same compound, the GI50 [34] was 2.04 µM, the TGI [34] was 5.77 µM and the GI50 [35] was 1.88 µM. For the same compound, the TGI [35] was 4.94 µM, the GI50 [36] was 3.85 µM and the TGI [36] was greater than 100 µM. For the same compound, the GI50 [37] was 1.76 µM, the TGI [37] was 4.29 µM and the GI50 [38] was 2.39 µM. The TGI [38] was 13.4 µM, the GI50 [39] was 1.92 µM and the TGI [39] was 4.39 µM. It also gave a GI50 [40] of 3.22 µM, a TGI [40] of 25 µM and a GI50 [41] of 3.76 µM. It also gave a TGI [41] of 95.3 µM, a GI50 [42] of 0.64 µM and a TGI [42] of 20.7 µM. For the same compound, the GI50 [43] was 5.31 µM, the TGI [43] was 34.2 µM and the GI50 [44] was 2.47 µM. The TGI [44] was 18.9 µM, the GI50 [45] was 3.11 µM and the TGI [45] was 30 µM. It also gave a GI50 [46] of 3.66 µM, a TGI [46] of 51 µM and a GI50 [47] of 1.96 µM. The TGI [47] was 4.71 µM, the GI50 [48] was 1.86 µM and the TGI [48] was 9.75 µM. The GI50 [49] was 1.41 µM and the TGI [49] was 3.96 µM.
